One compound from US10709745B2, “Tropic cell based virotherapy for the treatment of cancer” (priority 2013, dated 2020) can be followed below.

Like-named read-outs stand apart in the source and are kept apart here.

Experiment [1] relates to U87MG intracranial glioma xenografts. The experiment can be described thus: U87MG intracranial xenograft, TMZ and CRAd-S-pk7 combination survival. The format is in vivo, mice. How it is done:
FIGS. 11A, 11B and 11C show in vivo anti-tumor activity of CRAd-S-pk7 in combination with TMZ according to one embodiment. (FIG. 11A) Five consecutive injections of TMZ at 70 mg/kg/day (▾) achieve 100% survival for 80 days post U87MG implantation, whereas 5 TMZ injections at 10 mg/kg/day (∘) had significant increase in survival compared to mock treatment ( )(p<0.05).
Because temozolomide (TMZ) is the standard of care for patients with GBM, the efficacy of TMZ and CRAd-S-pk7 combination was evaluated in vivo in mice with U87MG intracranial (i.c.) glioma xenografts. To employ a dose that resembles the partial therapeutic effect of TMZ seen in the clinical scenario, different doses of TMZ were tested. Based on those studies, a dose of 10 mg/kg/day×5 days of intraperitoneal (i.p.) TMZ was chosen to study the efficacy of a TMZ and CRAd-S-pk7 combination treatment, since this dose led to an increase in survival but remained non-curative (FIG. 11A) (log-rank test, p<0.05). Additionally, different doses of i.c. CRAd-S-pk7 injections were tested to investigate which dose provides an increase in survival that could be further enhanced by the addition of co-adjuvant TMZ. A dose of 3×10^9 vp/mouse×2 injections of CRAd-S-pk7 was chosen for testing the therapeutic effects of TMZ+CRAd-S-pk7 combination, since it led to a partial efficacy that could be further enhanced (FIG. 11B) (log-rank test p<0.05).
Based on the above findings, the combination of TMZ and CRAd-S-pk7 was tested for efficacy in terms of survival (FIG. 11C). The combination of TMZ (10 mg/kg/day×5) plus two i.c. injections of CRAd-S-pk7 3×10^9 vp/mouse led to a 90% of long term survivors (>90 days) (LTS). […] Consistent with the finding of an additive cytotoxic effect of TMZ and CRAd-S-pk7 in vitro experiments, this treatment combination led to an improved survival in mice bearing intracranial human glioma xenografts.

The subject of a further experiment is U251. The experiment can be described thus: Glioma cell viability (MTT) under XRT-TMZ with or without CRAd-S-pk7. The format is cell-based, human. The settings on record: for IC50: Homo sapiens, U-251. On the procedure:
(§1) FIGS. 42A and 42B illustrate antitumor effects of CRAd-Survivin-pk7 (CRAd-S-pk7)-loaded NSCs and their combination with XRT-TMZ against glioma cell lines in vitro according to one embodiment. (FIG. 42A): Cytotoxicity of patient-derived GBM43 tumor cells 96 hours after coculture with CRAd-S-pk7-loaded NSCs at the NSC to GBM43 cell ratios of 1:0, 1:2, 1:5, 1:10, or 1:50. Top: Representative light microscope pictures of GBM43 viability. Bottom: Mean luciferase intensity values represented as the percentages of viable glioma cells compared with control. (FIG. 42B): U251 and U87 glioma cell viability measured by 3-(4,5-dimethylthiazol-2-yl)-2,5-diphenyltetrazolium bromide at 96 hours after treatment. The addition of CRAd-S-pk7 (50 infectious units) to conventional XRT-TMZ therapy reduced the percentage of glioma cell viability in both tested cell lines. […] Abbreviations: NSC, neural stem cell; OV, oncolytic virus; TMZ, temozolomide; XRT, radiation therapy.
(§2) FIGS. 44A and 44B show the optimization of combination therapy in vitro according to one embodiment. (FIG. 44A): Cytotoxicity of U251 and U87 glioma cell lines and GBM39 patient-derived cell line treated with Rx-OV or OV-Rx. Left: The percentage of viability of glioma cells measured by 3-(4,5-dimethylthiazol-2-yl)-2,5-diphenyltetrazolium bromide 96 hours after treatment. Right: Representative light microscope pictures of U87 glioma cell viability (magnification, ×10). (FIG. 44B): Percentage of apoptotic GBM43 cells at 48 hours after treatment with Rx-OV or OV-Rx treatment protocols as measured by the expression of active caspase-3-positive tumor cells by FACS (bottom). Top: Representative FACS plots. *, p<0.05; **, p<0.01; ***, p<0.001. Abbreviations: DMSO, dimethyl sulfoxide; OV-Rx, ionizing radiation-temozolomide therapy 24 hours after oncolytic virus; PE, phycoerythrin; Rx-OV, oncolytic virus 24 hours after ionizing radiation-temozolomide therapy.
(§3) For all studies, the cells and mice received XRT in accordance with the University of Chicago's radiation safety guidelines and protocols. All cells received a single dose of 2 Gy XRT. For animal studies, 10 Gy fractioned dose radiotherapy (2 Gy for 5 consecutive days) was used. The animals were irradiated with a lead cover shielding their entire body, with only their heads exposed. […] For in vivo studies, the mice received 2.5, 5, 10, or 30 mg/kg TMZ via intraperitoneal injection.
(§4) A green fluorescent protein (GFP) expressing HB1.F3-CD cell line was generated as described elsewhere (Ahmed et al. 2011a). GBM43-Fluc cells were plated in 12-well plates and cocultured with HB1.F3-CDGFP cells loaded with CRAd-S-pk7 in the following NSC to glioma cell ratios: 1:0, 1:2, 1:5, 1:10, and 1:50. After 96 hours, the cells were collected, lysed with reporter lysis buffer (Promega, Madison, Wis., http://www.promega.com), and added to luciferase assay reagent (Promega) according to the manufacturer's protocol. Following lysate preparation, the mean fluorescence intensity (MFI) was estimated for each group of cocultured cells using the GloMax 20/20 Luminometer (Promega). The mean luciferase intensity values were represented as the percentage of cells viable compared with mock cells. U251, U87, and GBM39 cell viability was determined using 3-(4,5-dimethylthiazol-2-yl)-2,5-diphenyltetrazolium bromide (MTT) cell proliferation kit (Roche Diagnostics, Mannheim, Germany, http://www.roche-applied-science.com). The viability was subsequently determined by MTT as described by the manufacturer's protocol. Cell viability was expressed as the percentage of cells alive compared with the dimethyl sulfoxide-treated control.
(§5) Next, it was tested whether CRAd-S-pk7 could enhance the therapeutic efficacy of conventional XRT-TMZ. U251 or U87 glioma cells were treated with conventional therapy consisting of 2 Gy XRT and varying concentrations of TMZ (0-1×10^3 µM) or conventional treatment plus 50 IU of CRAd-S-pk7, and cell viability was measured by MTT at 96 hours. […]

The next experiment relates to U87. The experiment is described as above. Type of experiment: cell-based, human. The settings on record: for IC50: Homo sapiens, U-87 MG. On the procedure:
as §1, §2, §3, §4, §5

The mark [2] stands for this setting: 2 Gy XRT plus 50 IU of CRAd-S-pk7, MTT 96 hours, read-out: IC50 values for TMZ.
The mark [3] stands for this setting: treated with XRT (2 Gy) simultaneously, read-out: IC50.

On to `Cn1nnc2c(C(N)=O)ncn2c1=O` [TMZ, temozolomide], for which the median survival in experiment [1] (TMZ 10 mg/kg/day×5 alone or CRAd-S-pk7 3×10^9 vp/mouse×2 alone) was 51 days. For the same compound, the “long term survivors (>90 days) (LTS)” value in experiment [1] (TMZ 10 mg/kg/day×5 i.p., CRAd-S-pk7 3×10^9 vp/mouse×2 i.c., alone or combined) is given as 7%. Further, the “survival for 80 days post U87MG implantation” value in experiment [1] (TMZ 70 mg/kg/day, five consecutive injections) turned out to be 100%. For the same compound, the IC50 with U251 (setting [2]) came out at 13 µM; with U251 (setting [3]), 44 µM; with U87 (setting [2]), 10 µM; with U87 (setting [3]), 25 µM. The figures for the “decrease of TMZ IC50 when OV was added” value in the experiment with U251 (XRT-TMZ) and in the experiment with U87 (XRT-TMZ) were 31 µM and 15 µM, respectively.

One may read the IC50 as the concentration at which inhibition is half-maximal.
